These results are taken from patent US20060020036A1, “Methods and compositions to promote bone homestasis” (priority 2004, published 2006).

Each structure is given as a SMILES string. Entries after “also recorded” stand apart in the source; their conditions may differ.

The target in the assay is T1, NR1H3 (Homo sapiens, UniProt Q13133).
T1 construct: amplification of the complete open reading frame from ATG start codon to the stop codon of drugable genes; expressed in transfected cells; host or cells: primary human mesenchymal progenitor cells (MPCs), transduced with Ad5-NR1H3 and Ad-hCAR
T1 sequence (Q13133 1-447): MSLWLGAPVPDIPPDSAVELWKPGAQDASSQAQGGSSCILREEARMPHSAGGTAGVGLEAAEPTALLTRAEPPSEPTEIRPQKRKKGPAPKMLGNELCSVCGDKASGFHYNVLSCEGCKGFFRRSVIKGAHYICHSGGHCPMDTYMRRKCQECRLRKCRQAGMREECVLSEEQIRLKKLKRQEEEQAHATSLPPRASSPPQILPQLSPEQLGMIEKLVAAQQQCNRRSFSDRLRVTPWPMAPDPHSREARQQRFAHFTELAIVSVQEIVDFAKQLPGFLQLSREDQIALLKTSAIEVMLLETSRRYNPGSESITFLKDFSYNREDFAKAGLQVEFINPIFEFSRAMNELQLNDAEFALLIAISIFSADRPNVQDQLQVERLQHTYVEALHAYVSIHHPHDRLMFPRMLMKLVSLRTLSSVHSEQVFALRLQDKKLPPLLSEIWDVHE
Nature of the assay: AP assay: MPCs infected with Ad-NR1H3 and treated with ligand. The class given is cell-based. The settings on record: for up-regulation of endogenous alkaline phosphatase (AP) activity, dose-response: MPCs infected with Ad-NR1H3, ligand at different concentrations. As to the method:
Mesenchymal progenitor cells (MPCs) differentiate into osteoblasts in the presence of appropriate factors (e.g. BMP2). An assay to screen for such factors is developed by monitoring the activity of alkaline phosphatase (AP) enzyme, an early marker in the osteoblast differentiation program. MPCs are seeded in 384 well plates and simultaneously co-infected one day later with adenoviruses encoding the human coxsackie and adenovirus receptor (hCAR; Ad-hCAR) and individual adenoviruses (Ad-cDNA) from the arrayed adenoviral knock-in collection containing cDNA sequences corresponding to genes from “drugable” classes like GPCR's, kinases, proteases, phosphodiesterases and nuclear hormone receptors (the FLeXSelect collection). The majority of these cDNAs are obtained by a PCR-based approach. Briefly, PCR primers are designed for amplification of the complete open reading frame from ATG start codon to the stop codon of drugable genes, based on sequence data present in the RefSeq database. Primers are mixed in an arrayed format at a PCR ready concentration in 96 well plates. As a template for the PCR reactions, placental, fetal liver, fetal brain and spinal cord cDNA libraries are used (from Invitrogen or Edge Biosystems). For the genes encoded by a single exon, PCR reactions are also performed on human genomic DNA. After the amplification reactions, the PCR products are purified with a 96-well PCR clean-up system (Wizard magnesil, Promega, Madison, Wis., USA), digested with the appropriate restriction enzymes (AscI, NotI or SalI restriction sites are included in the primers) and directly cloned into the adenoviral adapter plasmid pIspAdAdapt-10-Zeo (described in U.S. Pat. No. 6,340,595) using DNA ligation kit version 2 (TaKaRa, Berkeley, CA, USA). After a transformation and selection step, multiple clones per gene, one of which is sequence verified, are used for the preparation of plasmid DNA and subsequent generation of adenovirus according to the procedure described in WO99/64582.
Cellular AP activity is determined 6 days after the infection (or ligand addition—see below). The principle of the assays is depicted in FIG. 2. […] Six days after the start of infection or treatment with a ligand, endogenous alkaline phosphatase activity is measured following addition of 4-methylumbelliferyl […] (MUP) substrate.
The stocks of the Ad-control-viruses are generated in 96 well plates (control plate). […] Up-regulation of alkaline phosphatase is read at 6 days post infection (6 dpi): 15 μl 4-Methylumbelliferyl-phosphate (MUP, Sigma) is added to each well, the plates are incubated for 15 min at 37° C. and monitored for AP activity using a fluorescence plate reader (Fluostar, BMG). […]

`CC(=O)Oc1ccc2c(c1)[C@@]1(C)CCC[C@](C)(C(=O)OC(=O)[C@@]3(C)CCC[C@]4(C)c5cc(OC(C)=O)ccc5CC[C@@H]34)[C@@H]1CC2` [APD, acetyl podocarpic dimer]: the “up-regulation of endogenous alkaline phosphatase (AP) activity, dose-response” value (shortened to “up-regulation”) was “dose-response relation is observed; also recorded: AP activity is up-regulated; also recorded: Dose-dependent up-regulation of AP activity”.
For the molecule `O=C(O)Cc1cccc(OCCCN(Cc2cccc(C(F)(F)F)c2Cl)CC(c2ccccc2)c2ccccc2)c1` [GW3965, 2-(3-(3-(N-(2-chloro-3-(trifluoromethyl)benzyl)-N-(2,2-diphenylethyl)amino)propoxy)phenyl)acetic acid], the “up-regulation” value was “dose-response relation is observed; also recorded: AP activity is up-regulated; also recorded: Dose-dependent up-regulation of AP activity”.
In the case of `O=S(=O)(c1ccccc1)N(CC(F)(F)F)c1ccc(C(O)(C(F)(F)F)C(F)(F)F)cc1` [T0901317, N-(2,2,2-trifluoroethyl)-N-[4-[2,2,2-trifluoro-1-hydroxy-1-(trifluoromethyl)ethyl]phenyl]-benzenesulfonamide], the “up-regulation” value is reported as “dose-dependently increase the up-regulation of the endogenous alkaline phosphatase activity; also recorded: AP activity is up-regulated; also recorded: score well”. Also, the “induction of AP activity in different MPC isolates” value (MPCs from 4 different donors, Ad-NR1H3 MOI 2500 + T0901317, 6 days) is reported as “induce AP activity to similar extents in all 4 MPC isolates tested; also recorded: induce AP activity independent of the MPC isolate”.
